The results in this text go back to patent publication US20180273538A1, “PYRROLO[2,3-d]PYRIMIDINE DERIVATIVES, A PROCESS FOR THEIR PREPARATION AND PHARMACEUTICAL COMPOSITIONS CONTAINING THEM” (LES LABORATOIRES SERVIER, priority 2015, published 2018).

Structures are written as SMILES.

One experiment addresses T1, DYRK1B (Homo sapiens, UniProt Q9Y463).
T1 construct: full-length human kinases from Carna Biosciences; purchased Carna Biosciences 04-131
The experiment is described as follows: Kinase TR-FRET assay, DYRK1B. In kind it is biochemical. For orientation: Time-resolved FRET reads energy transfer from a long-lived donor to a nearby acceptor.

In the next experiment the target is T2, CLK1 (Homo sapiens, UniProt P49759).
T2 construct: full-length human kinases from Carna Biosciences; purchased Carna Biosciences 04-126
The experiment in a line: Kinase TR-FRET assay, CLK1. In kind it is biochemical.

For a further experiment, the target named is T3, DYRK1A (Homo sapiens, UniProt Q13627).
T3 construct: full-length human kinases from Carna Biosciences; purchased Carna Biosciences 04-130
The experiment is described as follows: Kinase TR-FRET assay, DYRK1A. In kind it is biochemical.

The target of another experiment is T4, phospho-Ser520-DYRK1A (Homo sapiens, UniProt Q13627).
T4 construct: full-length, wild-type human DYRK1A (NM_001396) with an HA tag; expressed in transfected cells; host or cells: human U2-OS osteosarcoma cells, pcDNA3.1 plasmid
The experiment in a line: Cellular DYRK1A autophosphorylation assay in U2-OS cells. The conditions noted are these: 5 hours exposure, read-out: IC50 (μM) P-Ser520-Dyrk1A-Cell assay. Type of experiment: cell-based.

Experiment [1] has as its target T5, His-TEV-DYRK1A Kinase domain (aa127-485) (Homo sapiens, UniProt Q13627).
T5 construct: His-TEV-DYRK1A Kinase domain (aa127-485); His (N); TEV cleavage site (N)
The experiment in a line: Kinase ADP assay (ADP Hunter Plus). Type of experiment: biochemical.

T2 sequence (P49759 1-526 isoform P49759-3): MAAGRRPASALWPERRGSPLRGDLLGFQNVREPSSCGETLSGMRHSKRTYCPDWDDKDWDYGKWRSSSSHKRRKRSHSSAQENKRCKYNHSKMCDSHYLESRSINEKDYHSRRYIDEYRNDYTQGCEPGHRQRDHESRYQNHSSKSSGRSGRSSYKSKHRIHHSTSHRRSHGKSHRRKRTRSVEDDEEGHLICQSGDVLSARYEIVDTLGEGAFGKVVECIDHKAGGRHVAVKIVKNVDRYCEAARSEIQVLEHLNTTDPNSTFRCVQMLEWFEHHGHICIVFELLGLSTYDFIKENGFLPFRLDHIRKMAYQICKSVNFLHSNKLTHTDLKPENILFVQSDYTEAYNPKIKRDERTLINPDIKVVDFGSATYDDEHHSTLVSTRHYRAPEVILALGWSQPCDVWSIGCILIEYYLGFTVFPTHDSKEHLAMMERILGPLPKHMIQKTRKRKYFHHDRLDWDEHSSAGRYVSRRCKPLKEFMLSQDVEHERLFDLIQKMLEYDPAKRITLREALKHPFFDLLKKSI
T1 sequence (Q9Y463 whole entry): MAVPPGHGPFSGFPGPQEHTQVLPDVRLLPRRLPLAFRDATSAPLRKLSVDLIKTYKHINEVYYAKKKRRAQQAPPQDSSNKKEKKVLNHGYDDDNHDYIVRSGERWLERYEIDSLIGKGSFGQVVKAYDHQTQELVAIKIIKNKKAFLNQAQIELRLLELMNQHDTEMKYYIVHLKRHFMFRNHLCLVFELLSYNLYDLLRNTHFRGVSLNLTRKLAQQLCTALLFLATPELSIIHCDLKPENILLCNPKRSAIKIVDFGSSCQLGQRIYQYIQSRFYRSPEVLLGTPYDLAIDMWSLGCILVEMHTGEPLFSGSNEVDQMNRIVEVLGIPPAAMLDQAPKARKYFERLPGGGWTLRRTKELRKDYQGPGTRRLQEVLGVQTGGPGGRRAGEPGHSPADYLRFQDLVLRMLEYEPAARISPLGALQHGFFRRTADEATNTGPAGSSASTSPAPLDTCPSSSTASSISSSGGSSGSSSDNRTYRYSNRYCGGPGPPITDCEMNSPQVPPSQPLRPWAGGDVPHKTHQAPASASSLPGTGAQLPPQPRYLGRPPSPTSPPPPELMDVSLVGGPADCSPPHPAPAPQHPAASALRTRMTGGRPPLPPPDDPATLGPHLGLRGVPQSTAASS

As a reminder, the IC50 is the concentration that inhibits the measured activity by half. As for `Cc1nc(OCc2cc(C)on2)c2c(-c3ccncc3)c[nH]c2n1` [Example 16, 2-methyl-4-[(5-methyl-1,2-oxazol-3-yl)methoxy]-5-(pyridin-4-yl)-7H-pyrrolo[2,3-d]pyrimidine], the IC50 is 0.0178 µM at DYRK1B; 0.0328 µM against CLK1; 0.0149 µM against DYRK1A; 0.14 µM at phospho-Ser520-DYRK1A; 0.011 µM in experiment [1].
Take `Cc1nc(OCc2ccc(C#N)cc2)c2c(-c3ccnc(N)c3)c[nH]c2n1` [Example 25, 4-({[5-(2-aminopyridin-4-yl)-2-methyl-7H-pyrrolo[2,3-d]pyrimidin-4-yl]oxy}methyl)benzonitrile]: the IC50 was determined as 0.0079 µM at DYRK1B; 0.0177 µM at CLK1; 0.0031 µM at DYRK1A; 0.036 µM on phospho-Ser520-DYRK1A; 0.012 µM in experiment [1].
On to `Cc1nc(NCc2c(C)cccc2Cl)c2c(-c3ccnc(N)c3)c[nH]c2n1` [Example 58, 5-(2-aminopyridin-4-yl)-N-(2-chloro-6-methylbenzyl)-2-methyl-7H-pyrrolo[2,3-d]pyrimidin-4-amine], for which the IC50 at DYRK1B was 0.0175 µM; at CLK1, 0.0245 µM; on DYRK1A, 0.0215 µM; on phospho-Ser520-DYRK1A it was 0.0337 µM; in experiment [1], 0.01 µM.
For `Cc1nc(NCc2c(Cl)cccc2Cl)c2c(-c3ccnc(N)c3)c[nH]c2n1` [Example 61, 5-(2-aminopyridin-4-yl)-N-(2,6-dichlolorobenzyl)-2-methyl-7H-pyrrolo[2,3-d]pyrimidin-4-amine], the concentration for half-maximal inhibition (IC50) turned out to be 0.0029 µM against DYRK1B; 0.0129 µM on CLK1; 0.0062 µM at DYRK1A; 0.0115 µM at phospho-Ser520-DYRK1A; 0.01 µM in experiment [1].
The corresponding values for `Cc1nc(NCc2c(F)cccc2Cl)c2c(-c3ccnc(N)c3)c[nH]c2n1` [Example 62, 5-(2-aminopyridin-4-yl)-N-(2-chloro-6-fluorobenzyl)-2-methyl-7H-pyrrolo[2,3-d]pyrimidin-4-amine] are 0.0002 µM, 0.0162 µM, 0.0186 µM, 0.021 µM and 0.008 µM.
Take `Cc1nc(NCc2ncccc2F)c2c(-c3ccnc(N)c3)c[nH]c2n1` [Example 71, 5-(2-aminopyridin-4-yl)-N-[(3-fluoropyridin-2-yl)methyl]-2-methyl-7H-pyrrolo[2,3-d]pyrimidin-4-amine]: the results for the half-maximal inhibitory concentration (IC50) on DYRK1B and at CLK1 were 0.0074 µM and 0.0237 µM, respectively.
As for `Cc1nc(NCc2cccc(F)c2F)c2c(-c3ccnc(N)c3)c[nH]c2n1` [Example 74, 5-(2-aminopyridin-4-yl)-N-(2,3-difluorobenzyl)-2-methyl-7H-pyrrolo[2,3-d]pyrimidin-4-amine], the IC50 on CLK1 is 0.0184 µM; at DYRK1A, 0.0012 µM; on phospho-Ser520-DYRK1A, 0.111 µM; in experiment [1], 0.014 µM.
For the compound `Cc1nc(NCc2ncccc2C(F)(F)F)c2c(-c3ccnc(N)c3)c[nH]c2n1` [Example 78, 5-(2-aminopyridin-4-yl)-2-methyl-N-{[3-(trifluoromethyl)pyridin-2-yl]methyl}-7H-pyrrolo[2,3-d]pyrimidin-4-amine], the IC50 at DYRK1B amounted to 0.0145 µM; on CLK1 it was 0.0293 µM; against DYRK1A, 0.0013 µM; on phospho-Ser520-DYRK1A, 0.0721 µM; in experiment [1], 0.01 µM.
As for `Cc1nc(NCc2cccc(Cl)c2Cl)c2c(-c3ccnc(N)c3)c[nH]c2n1` [Example 81, 5-(2-aminopyridin-4-yl)-N-(2,3-dichlorbenzyl)-2-methyl-7H-pyrrolo[2,3-d]pyrimidin-4-amine], the IC50 at DYRK1B was determined as 0.0141 µM; on DYRK1A, 0.0085 µM; on phospho-Ser520-DYRK1A, 0.166 µM; in experiment [1], 0.014 µM.
Take `Cc1nc(NCc2cccc(Cl)c2C)c2c(-c3ccnc(N)c3)c[nH]c2n1` [Example 94, 5-(2-aminopyridin-4-yl)-N-(3-chloro-2-methylbenzyl)-2-methyl-7H-pyrrolo[2,3-d]pyrimidin-4-amine]: the IC50 on DYRK1B came out at 0.0112 µM; against CLK1, 0.0378 µM; at DYRK1A, 0.0077 µM; at phospho-Ser520-DYRK1A it was 0.155 µM; in experiment [1], 0.019 µM.
In the case of `Cc1nc(N2CCc3ccccc3C2)c2c(-c3ccnc(N)c3)c[nH]c2n1` [Example 96, 4-[4-(3,4-dihydroisoquinolin-2(1H)-yl)-2-methyl-7H-pyrrolo[2,3-d]pyrimidin-5-yl]pyridin-2-amine], the IC50 at DYRK1B is 0.0315 µM; against CLK1, 0.0151 µM; on DYRK1A it was 0.0023 µM; on phospho-Ser520-DYRK1A it was 0.0119 µM; in experiment [1], 0.009 µM.
Take `COc1cccnc1CNc1nc(C)nc2[nH]cc(-c3ccnc(N)c3)c12` [Example 98, 5-(2-aminopyridin-4-yl)-N-[(3-methoxypyridin-2-yl)methyl]-2-methyl-7H-pyrrolo[2,3-d]pyrimidin-4-amine]: the IC50 on CLK1 was 0.0241 µM; on phospho-Ser520-DYRK1A it was 0.192 µM; in experiment [1] it was 0.022 µM.
With `Cc1nc(NC2Cc3ccccc3C2)c2c(-c3ccnc(N)c3)c[nH]c2n1` [Example 99, 5-(2-aminopyridin-4-yl)-N-(2,3-dihydro-1H-inden-2-yl)-2-methyl-7H-pyrrolo[2,3-d]pyrimidin-4-amine], the IC50 against DYRK1B was found to be 0.0293 µM; against CLK1, 0.0549 µM; against DYRK1A it was 0.0086 µM; at phospho-Ser520-DYRK1A it was 0.192 µM; in experiment [1], 0.029 µM.
For the compound `Cc1nc(N2CCC3CCCCC3C2)c2c(-c3ccnc(N)c3)c[nH]c2n1` (stereo not shown) [Example 104, 4-[2-methyl-4-(octahydroisoquinolin-2(1H)-yl)-7H-pyrrolo[2,3-d]pyrimidin-5-yl]pyridin-2-amine], the IC50 amounted to 0.0167 µM against DYRK1B; 0.0225 µM against CLK1; 0.0081 µM at DYRK1A; 0.105 µM at phospho-Ser520-DYRK1A; 0.015 µM in experiment [1].
In the case of `COc1ccccc1[C@H](C)Nc1nc(C)nc2[nH]cc(-c3ccnc(N)c3)c12` [Example 106, 5-(2-aminopyridin-4-yl)-N-[(1S)-1-(2-methoxyphenyl)ethyl]-2-methyl-7H-pyrrolo[2,3-d]pyrimidin-4-amine], the IC50 against CLK1 was found to be 0.0171 µM; on phospho-Ser520-DYRK1A, 0.177 µM; in experiment [1] it was 0.018 µM.
As to `Cc1nc(N2CCc3sccc3C2)c2c(-c3ccnc(N)c3)c[nH]c2n1` [Example 108, 4-[4-(6,7-dihydrothieno[3,2-c]pyridin-5(4H)-yl)-2-methyl-7H-pyrrolo[2,3-d]pyrimidin-5-yl]pyridin-2-amine], the IC50 on DYRK1B was found to be 0.0092 µM; on CLK1, 0.0283 µM; at DYRK1A it was 0.0027 µM; at phospho-Ser520-DYRK1A, 0.0491 µM; in experiment [1], 0.009 µM.
As for `Cc1nc(N2CCc3ccccc3C2)c2c(-c3cc(N)nc(N)c3)c[nH]c2n1` [Example 114, 4-[4-(3,4-dihydroisoquinolin-2(1H)-yl)-2-methyl-7H-pyrrolo[2,3-d]pyrimidin-5-yl]pyridine-2,6-diamine], the IC50 on CLK1 is 0.0162 µM; at phospho-Ser520-DYRK1A it was 0.006 µM; in experiment [1], 0.009 µM.
For the compound `Cc1nc(NCc2c(F)cccc2F)c2c(-c3cc(N)nc(N)c3)c[nH]c2n1` [Example 115, 4-{4-[(2,6-difluorobenzyl)amino]-2-methyl-7H-pyrrolo[2,3-d]pyrimidin-5-yl}pyridine-2,6-diamine], the 50% inhibitory concentration (IC50) against DYRK1B was found to be 0.0094 µM; against CLK1 it was 0.0172 µM; against DYRK1A it was 0.0031 µM; at phospho-Ser520-DYRK1A it was 0.0185 µM; in experiment [1], 0.005 µM.
For `COc1cccc(F)c1CNc1nc(C)nc2[nH]cc(-c3cc(N)nc(N)c3)c12` [Example 116, 4-{4-[(2-fluoro-6-methoxybenzyl)amino]-2-methyl-7H-pyrrolo[2,3-d]pyrimidin-5-yl}pyridine-2,6-diamine], the 50% inhibitory concentration (IC50) is 0.0136 µM at CLK1, 0.0009 µM at phospho-Ser520-DYRK1A and 0.005 µM in experiment [1].
As for `Cc1nc(NCC(F)(F)c2ccccc2)c2c(-c3ccnc(N)c3)c[nH]c2n1` [Example 123, 5-(2-aminopyridin-4-yl)-N-(2,2-difluoro-2-phenylethyl)-2-methyl-7H-pyrrolo[2,3-d]pyrimidin-4-amine], the figures for the IC50 (against CLK1; in experiment [1]) were 0.0615 µM and 0.071 µM, respectively.
As for `Cc1nc(-c2ccccc2)c2c(-c3ccnc(N)c3)c[nH]c2n1` [Example 163], the IC50 against CLK1 stood at 0.104 µM; at phospho-Ser520-DYRK1A it was 0.197 µM; in experiment [1] it was 0.026 µM.
The corresponding values for `Cc1nc(COc2c(F)cccc2F)c2c(-c3ccnc(N)c3)c[nH]c2n1` [Example 166] are 0.248 µM, 0.118 µM and 0.025 µM.
In the case of `COc1cccc(-c2nc(C)nc3[nH]cc(-c4ccnc(N)c4)c23)c1` [Example 167], the figures for the half-maximal inhibitory concentration (IC50) (on CLK1; at phospho-Ser520-DYRK1A; in experiment [1]) were 0.042 µM, 0.0444 µM and 0.015 µM, respectively.
In the case of `Cc1nc(-c2ccc3c(c2)OCO3)c2c(-c3ccnc(N)c3)c[nH]c2n1` [Example 179], the IC50 came to 0.0115 µM against DYRK1B and 0.0425 µM at CLK1.
Take `Cc1nc(NCc2c(F)cccc2F)c2c(-c3ccnc(N)n3)c[nH]c2n1` [Example 206, 5-(2-aminopyrimidin-4-yl)-N-(2,6-difluorobenzyl)-2-methyl-7H-pyrrolo[2,3-d]pyrimidin-4-amine]: the IC50 at DYRK1B is 0.0133 µM; on CLK1, 0.0238 µM.
